Measured values reported in a melting point compilation (Tetko et al.; mined from patent text by program, amines drawn as free bases though some values may be those of a salt).

| Structure (SMILES) | melting point [°C] |
| --- | --- |
| O=C(Nc1ccc(Oc2ccc(Br)cc2)nc1)c1ccccc1C(c1ccc(O)cc1)c1ccc(O)cc1 | 218 to 223 |
| NC(=O)c1c(Cl)cn2c1CN(S(=O)(=O)c1ccc(-c3ccccn3)s1)CC2 | 213 to 214 |
| COCn1c(C)nc2c(O)cc(C(=O)N(C)C)cc21 | 173 to 183 |
| O=C(NCC1CCN(CC2(C(=O)O)CCCCC2)CC1)N1C(=O)C2(CCCC2)c2ccccc21 | 160 |
| O=c1nc(-c2ccnc(N3CCN(c4ccc(F)cc4)CC3)c2)sc2ccccc12 | 233 to 234 |
| N#CCC(=N)c1cccc(F)c1 | 67 to 68 |
| CN(C)CC1CN(c2ccccc2)NC1=O (centres undefined) | 118 to 119 |
| CCc1c(-c2ccc(O)cc2)c2ccc3ccc(CO)c1n32 | 154 to 156 |
| CCCCCCCc1ccccc1C=CC(=O)c1ccc(OCC=C(C)C)cc1OCC(=O)O | 118 to 121 |
| CC(=O)C=Cc1ccc(Br)cc1 | 82 to 84 |
| CCc1c(-c2ccc(O)cc2)c2cc(COC)c3cccc1n32 | 137 to 141 |
| CCOc1ccc(C#N)c(F)c1F | 45 |
| COC(=O)NNC(=S)Cc1ccccc1 | 93.5 to 94 |
| Nc1nc2c(s1)CCN(CC1CC1c1ccccc1)CC2 (centres undefined) | 109 to 113 |
| NS(=O)(=O)c1ccc(-c2cccc(-c3nc(-c4ccc(Cl)cc4Cl)cc(C(F)(F)F)n3)c2)s1 | 238 |
| O=C1C(=O)c2ccccc2C2=C1SCC1(CCN(c3cc(Cl)ncn3)CC1)O2 | 172 to 174 |
| CNC(=O)N(O)C(C)c1ccc(OCc2ccccc2)cc1 (centres undefined) | 125 to 128 |
| Oc1ccc2cc(-c3noc4cc(O)ccc34)ccc2c1 | 280 to 282 |
| Cc1nc(Nc2ccc(F)cc2)nc(N2CCc3ccccc3C2CO)c1C (centres undefined) | 198 to 200 |
| CCN(CC)c1ccc(-c2nc(-c3cc(OC)c(O)c(OC)c3)n(C(=O)NS(=O)(=O)c3ccc(C)cc3)c2-c2ccc(N(CC)CC)cc2)cc1 | 65 |
| CCOC(=O)C1=C(C)N(C)C(C)=C(C(=O)OC(C)C)C1c1cccc([N+](=O)[O-])c1 (centres undefined) | 100 to 101 |
| COc1cc(SC2SCC(O)C(O)C2O)cc(OC)c1OC (centres undefined) | 166 |
| O=c1[nH]c2cccc(Br)c2c(=O)o1 | 280 to 281 |
| C[C@]1(O)CCCC[C@H]1n1cnc(C(=O)N2CCNC[C@H]2Cc2ccccc2)c1-c1ccccc1 | 191 |
| CCCCc1cn(Cc2ccc(-c3ccccc3C(=O)O)cc2)c2c(Br)cccc2c1=O | 180 |

| Structure (SMILES) | melting point [°C] |
| --- | --- |
| CN(C)S(=O)(=O)C(Br)(Br)Sc1ccccc1 | 128 to 129 |
| CC(=O)Nc1cccc(-c2cnc(N(C)C)nc2)c1 | 183 to 188 |
| CC1(CN2CCN(C(=O)Cc3ccc(Cl)c(Cl)c3)CC2)Cn2cc([N+](=O)[O-])nc2O1 (centres undefined) | 189 to 191 |
| CCc1c(-c2ccc(O)cc2)c2cc(COCCN3CCCCC3)c3cccc1n32 | 132 to 134 |
| CNS(=O)(=O)N(C)C(=O)CCCl | 96 |
| NCCNC(=O)c1ccc2c(c1)OCO2 | 120 to 123 |
| CCOC(=O)C(C)(C)Oc1ccc(CCNC(=O)C=Cc2ccccc2Cl)cc1 | 76 |
| O=C(O)c1ccc(CCCC2SCC(=O)N2CCC2(O)CCSCC2)cc1 (centres undefined) | 157 to 158 |
| CCc1nnc(-c2ccc(OC)cc2)n1-c1cccc(C(F)(F)F)c1 | 140 |
| CC(C)(C)OC(=O)N1CCC(C2=C(C#N)C(c3cccc(C#N)c3Br)c3c[nH]nc3N2)CC1 (centres undefined) | > 270 |
| CC(=O)N(C)N(C)c1ccnc2c(NC(=O)c3c(Cl)cccc3Cl)cccc12 | 243 to 244 |
| Nc1csc2ccc([N+](=O)[O-])cc12 | 155 to 158 |
| COc1cc2ncc(C#N)c(Nc3ccc(F)c(Cl)c3)c2cc1NC(=O)C=CCN1CCC(N2CCCCC2)CC1 | 140 to 144 |
| O=C(OCC(Cl)(Cl)Cl)N1C2CCC1CC(Sc1ccc(F)cc1)C2 (centres undefined) | 65 to 67 |
| OCCCNc1ccc2ncnn2n1 | 193 to 194 |
| CC(C)(O)CNCCN(C1CCNCC1)S(=O)(=O)c1ccc(Nc2nccc(Nc3ccc(F)cc3)n2)cc1 | 120 |
| COc1cc(SC(F)F)nc(N)n1 | 83 to 84 |
| CCOC(=O)c1cn(CC)c2nc(C)ccc2c1=O | 122 to 123 |
| Cn1nc(O)c(C(F)F)c1Cl | 122 to 123 |
| CC(C)(C)COc1ccc(NC(=O)c2cnn(-c3ccc(F)cc3)c2)cc1C#N | 196 to 197 |
| CCCCCCOc1nc(N)c2ncn(C3CCCCC3)c2n1 | 57 to 60 |
| O=C(O)c1ccccc1OCCN1CCC(c2cn(CCCC3OCCO3)c3ccccc23)CC1 | 147 to 149 |
| Nc1nc(-c2cccc3ccccc23)cc2ccc(Cl)cc12 | 180 to 181 |
| COc1cc(N(C)C)ccc1C(=O)NC1CCN(C(C)CC(C(=O)N(C)C)(c2ccccc2)c2ccccc2)CC1O (centres undefined) | 211 |
